This is an account of results in patent publication US20040224984A1, “Methods of treating inflammations and infections with pyridinium salts” (priority 2003, published 2004).

Assay [1] deals with Rodent. In words: 4 Hour Carrageenan Pleuritis (rodent inflammation model). It is filed as in vivo. The following applies: Prednisolone 0.02 mg/kg.
For assay [2], the system named is Rodent. In words: 4 Hour Allergic Pleuritis (rodent inflammation model). As to conditions: Prednisolone 0.004 mg/kg. It is filed as in vivo.
In assay [3] the test system is Rodent. In words: 4 Hour Allergic Synovitis (rodent inflammation model). The assay is classed as in vivo. The following applies: Prednisolone 0.05 mg/kg.
In assay [4] the test system is roundworms, threadworms, and whipworms. The following applies: reported; U.S. Pat. No. 3,075,975 and 3,085,935; cited from earlier work.
The test system of a further assay is Candida albicans. Briefly: Vaginal candidiasis in female Charles River mice. The following applies: mice infected vaginally, 0.025 mL daily for 4 days from 6 hours post-infection, formula I 0.5% (w/v), chlortrimazole 1% (w/v). It is filed as in vivo. How it is done:
Mice, infected vaginally with Candida albicans, were treated with 0.025 mL of the above treatments, commencing 6 hours post-infection, daily for 4 days.

SMILES strings stand for the structures.

Take `C[C@]12C=CC(=O)C=C1CC[C@@H]1[C@@H]2[C@@H](O)C[C@@]2(C)[C@H]1CC[C@]2(O)C(=O)CO` [Prednisolone]: the “% Inhibition Edema” value in the assay on Rodent [1] is recorded as 31%; in the assay with Rodent [2] it was 33%; in the assay with Rodent [3] it was 36%. The results for the “% Inhibition Neutrophils” value in the assay with Rodent [1], in the assay with Rodent [2] and in the assay with Rodent [3] were 21%, 25% and 37%, respectively.
Take `CC[n+]1c(/C=C/c2ccc(N3CCCC3)cc2)cccc1/C=C/c1ccc(N2CCCC2)cc1.[I-]` [Stilbazium iodide]: the Anthelmintic efficacy result in assay [4] is “effective against roundworms, threadworms, and whipworms”.
Regarding `Clc1ccccc1C(c1ccccc1)(c1ccccc1)n1ccnc1` [Chlortrimazole], the Cleared in the assay on Candida albicans (mice cleared/treated) is 7/10. In addition, the Improved in the assay with Candida albicans (mice improved/treated) was 2/10.
